Measurements from patent publication US10138253B2, “Imidazopyridine macrocycles as inhibitors of human immunodeficiency virus replication” (priority 2015, dated 2018).
Where two headings read alike, the source gives them in different places.

Experiments:
[1] = from COC(=O)[C@@H](OC(C)(C)C)c1c(C)c(C)c2nc(-c3cccc(-c4c(O)cc(C)cc4F)c3)cn2c1N1CCC(C)(OCCOC[C@@H](C)O)CC1; ether bond; PPh3/DIAD; THF; 6.7 mM; 1.0 h; 2 steps
[2] = from COC(=O)[C@@H](OC(C)(C)C)c1c(C)c(C)c2nc(-c3cccc(-c4c(O)cc(C)cc4F)c3)cn2c1N1CCC(C)(OCCOC[C@@H](C)O)CC1; ether bond; 20-membered ring; PPh3/DIAD; THF; 6.7 mM; 1.0 h; 2 steps
NL-RLuc virus = experiment: Inhibition of HIV replication (NL-RLuc virus, luciferase readout, MT-2 cells); format: cell-based; conditions: Human immunodeficiency virus 1, MT2, 120 h
Text: Inhibition of HIV Replication:
A recombinant NL-RLuc proviral clone was constructed in which a section of the nef gene from NL4-3 was replaced with the Renilla Luciferase gene. This virus is fully infectious and can undergo multiple cycles of replication in cell culture. In addition, the luciferous reporter provides a simple and easy method for quantitating the extent of virus growth and consequently, the antiviral activity of test compounds. The plasmid pNLRLuc contains the proviral NL-Rluc DNA cloned into pUC18 at the PvuII site. The NL-RLuc virus was prepared by transfection of 293T cells with the plasmid pNLRLuc. Transfections were performed using the LipofectAMINE PLUS kit from Invitrogen (Carlsbad, Calif.) according to the manufacturer and the virus generated was titered in MT-2 cells. For susceptibility analyses, the titrated virus was used to infect MT-2 cells in the presence of compound, and after 5 days of incubation, cells were processed and quantitated for virus growth by the amount of expressed luciferase. Assay media was RPMI 1640 supplemented with 10% heat inactivated fetal bovine serum (FBS), 100 units/ml penicillin G/100 units/ml streptomycin, 10 mM HEPES buffer pH 7.55 and 2 mM L-glutamine. The results from at least 2 experiments were used to calculate the EC50 values. Luciferase was quantitated using the Dual Luciferase kit from Promega (Madison, Wis.). Susceptibility of viruses to compounds was determined by incubation in the presence of serial dilutions of the compound. The 50% effective concentration (EC50) was calculated by using the exponential form of the median effect equation where (Fa)=1/[1+(ED50/drug conc.)^m] (Johnson V A, Byington R T. Infectivity Assay. In Techniques in HIV Research. ed. Aldovini A, Walker B D. 71-76. New York: Stockton Press. 1990). Activity equal to A refers to a compound having an EC50≤100 nM, while B and C denote compounds having an EC50 between 100 nM and luM (B) or >1 uM (C).

| SMILES | EC50 (NL-RLuc virus; read-out: Activity) [µM] | also measured |
| --- | --- | --- |
| COC(=O)[C@@H](OC(C)(C)C)c1c(C)c(C)c2nc3cn2c1N1CCC(C)(CC1)OCCOC[C@H](C)Oc1cc(C)cc(F)c1-c1cccc-3c1 | – | ring closure, yield of all isomers [1]: 81%; ring closure, isolated yield [2]: 81% |
| Cc1c([C@H](OC(C)(C)C)C(=O)O)c2n3c(Cl)c(nc3c1Cn1nccn1)-c1cccc(c1)-c1cc(F)c(F)cc1O[C@@H](C)COCCOC1(C)CCN2CC1 [Example 13, (2S)-2-(tert-butoxy)-2-[(22S)-8-chloro-17,18-difluoro-4,22,28-trimethyl-5-(2H-1,2,3-triazol-2-ylmethyl)-21,24,27-trioxa-1,7,34-triazahexacyclo[26.2.2.1^6,^9.1^1^0,^1^4.0^2,^7.0^1^5,^2^0]tetratriaconta-2,4,6(34),8,10(33),11,13,15(20),16,18-decaen-3-yl]acetic Acid] | < 0.1 | – |
| C=C(C)c1c(C)c([C@H](OC(C)(C)C)C(=O)O)c2n3cc(nc13)-c1cccc(c1)-c1cc(F)c(F)cc1O[C@@H](C)COCCOC1(C)CCN2CC1 [Example 14, (2S)-2-(tert-Butoxy)-2-[(22S)-17,18-difluoro-4,22,28-trimethyl-5-(prop-1-en-2-yl)-21,24,27-trioxa-1,7,34-triazahexacyclo[26.2.2.1^6,^9.1^1^0,^1^4.0^2,^7.0^1^5,^2^0]tetratriaconta-2,4,6(34),8,10(33),11,13,15(20),16,18-decaen-3-yl]acetic Acid] | < 0.1 | – |
| Cc1c([C@H](OC(C)(C)C)C(=O)O)c2n3c(C)c(nc3c1C)-c1cccc(c1)-c1cc(F)c(F)cc1O[C@@H](C)COCCOC1(C)CCN2CC1 [Example 15, (2S)-2-(tert-Butoxy)-2-[(22S)-17,18-difluoro-4,5,8,22,28-pentamethyl-21,24,27-trioxa-1,7,34-triazahexacyclo[26.2.2.1^6,^9.1^1^0,^1^4.0^2,^7.0^1^5,^2^0]tetratriaconta-2,4,6(34),8,10(33),11,13,15(20),16,18-decaen-3-yl]acetic Acid] | < 0.1 | – |
| Cc1c([C@H](OC(C)(C)C)C(=O)O)c2n3cc(nc3c1C#N)-c1cccc(c1)-c1cc(F)c(F)cc1O[C@@H](C)COCCOC1(C)CCN2CC1 [Example 17, (2S)-2-(tert-Butoxy)-2-[(22S)-5-cyano-17,18-difluoro-4,22,28-trimethyl-21,24,27-trioxa-1,7,34-triazahexacyclo[26.2.2.1^6,^9.1^1^0,^1^4.0^2,^7.0^1^5,^2^0]tetratriaconta-2,4,6(34),8,10(33),11,13,15(20),16,18-decaen3-yl]acetic Acid] | < 0.1 | – |
| Cc1cc(F)c2c(c1)O[C@@H](C)COCCOC1(C)CCN(CC1)c1c([C@H](OC(C)(C)C)C(=O)O)c(C)cc3nc(cn13)-c1cccc-2c1 [Example 18, (2S)-2-(tert-Butoxy)-2-[(22S)-16-fluoro-4,18,22,28-tetramethyl-21,24,27-trioxa-1,7,34-triazahexacyclo[26.2.2.1^6,^9.1^1^0,^1^4.0^2,^7.0^1^5,^2^0]tetratriaconta-2,4,6(34),8,10(33),11,13,15(20),16,18-decaen-3-yl]acetic Acid] | < 0.1 | – |
| Cc1cc(F)c2c(c1)O[C@@H](C)COCCOC1(C)CCN(CC1)c1c([C@H](OC(C)(C)C)C(=O)O)c(C)c(C)c3nc(cn13)-c1cccc-2c1 [Example 19, (2S)-2-(tert-Butoxy)-2-((6S,Z)-46-fluoro-14,27,28,44,6-pentamethyl-5,8,11-trioxa-2(5,2)-imidazo[1,2-a]pyridina-1(1,4)-piperidina-3(1,3),4(1,2)-dibenzenacycloundecaphane-26-yl)acetic Acid] | < 0.1 | – |
| Cc1cc(F)c2c(c1)O[C@@H](C)COCCOC1(C)CCN(CC1)c1c([C@H](OC(C)(C)C)C(=O)O)c(C)c(C)c3nc(c(Cl)n13)-c1cccc-2c1 [Example 21, (2S)-2-(tert-Butoxy)-2-((6S,E)-23-chloro-46-fluoro-14,27,28,44,6-pentamethyl-5,8,11-trioxa-2(5,2)-imidazo[1,2-a]pyridina-1(1,4)-piperidina-3(1,3),4(1,2)-dibenzenacycloundecaphane-26-yl)acetic acid] | < 0.1 | EC50 (NL-RLuc virus; read-out: EC50 μM): 0.002 µM |
| Cc1ccc2c(c1)O[C@@H](C)COCCOC1(C)CCN(CC1)c1c([C@H](OC(C)(C)C)C(=O)O)c(C)cc3nc(cn13)-c1cccc-2c1 [Example 22, (2S)-2-(tert-Butoxy)-2-[(22S)-4,18,22,28-tetramethyl-21,24,27-trioxa-1,7,34-triazahexacyclo[26.2.2.1^6,^9.1^1^0,^1^4.0^2,^7.0^1^5,^2^0]tetratriaconta-2,4,6(34),8,10(33),11,13,15(20),16,18-decaen-3-yl]acetic Acid] | < 0.1 | – |
| Cc1ccc2c(c1)O[C@@H](C)COCCOC1(C)CCN(CC1)c1c([C@H](OC(C)(C)C)C(=O)O)c(C)c(C)c3nc(cn13)-c1cccc-2c1 [Example 23, (2S)-2-(tert-Butoxy)-2-((6S,Z)-14,27,28,44,6-pentamethyl-5,8,11-trioxa-2(5,2)-imidazo[1,2-a]pyridina-1(1,4)-piperidina-3(1,3),4(1,2)-dibenzenacycloundecaphane-26-yl)acetic Acid] | < 0.1 | – |
| Cc1ccc2c(c1)O[C@@H](C)COCCOC1(C)CCN(CC1)c1c([C@H](OC(C)(C)C)C(=O)O)c(C)c(C)c3nc(c(Cl)n13)-c1cccc-2c1 [Example 24, (2S)-2-(tert-Butoxy)-2-((6S,E)-23-chloro-14,27,28,44,6-pentamethyl-5,8,11-trioxa-2(5,2)-imidazo[1,2-a]pyridina-1(1,4)-piperidina-3(1,3),4(1,2)-dibenzenacycloundecaphane-26-yl)acetic Acid] | < 0.1 | – |
| Cc1ccc2c(c1)-c1cccc(c1)-c1cn3c(c([C@H](OC(C)(C)C)C(=O)O)c(C)cc3n1)N1CCC(C)(CC1)OCCOC[C@H](C)O2 [Example 25, (2S)-2-(tert-Butoxy)-2-[(22S)-4,17,22,28-tetramethyl-21,24,27-trioxa-1,7,34-triazahexacyclo[26.2.2.1^6,^9.1^1^0,^1^4.0^2,^7.0^1^5,^2^0]tetratriaconta-2,4,6(34),8,10(33),11,13,15(20),16,18-decaen-3-yl]acetic acid] | < 0.1 | EC50 (NL-RLuc virus; read-out: EC50 μM): 0.002 µM |
| Cc1ccc2c(c1)-c1cccc(c1)-c1cn3c(c([C@H](OC(C)(C)C)C(=O)O)c(C)c(C)c3n1)N1CCC(C)(CC1)OCCOC[C@H](C)O2 [Example 26, (2S)-2-(tert-Butoxy)-2-[(22S)-4,5,17,22,28-pentamethyl-21,24,27-trioxa-1,7,34-triazahexacyclo[26.2.2.1^6,^9.1^1^0,^1^4.0^2,^7.0^1^5,^2^0]tetratriaconta-2,4,6(34),8,10(33),11,13,15(20),16,18-decaen-3-yl]acetic Acid] | < 0.1 | – |
| Cc1ccc2c(c1)-c1cccc(c1)-c1nc3c(C)c(C)c([C@H](OC(C)(C)C)C(=O)O)c(n3c1Cl)N1CCC(C)(CC1)OCCOC[C@H](C)O2 [Example 27, (2S)-2-(tert-Butoxy)-2-[(22S)-8-chloro-4,5,17,22,28-pentamethyl-21,24,27-trioxa-1,7,34-triazahexacyclo[26.2.2.1^6,^9.1^1^0,^1^4.0^2,^7.0^1^5,^2^0]tetratriaconta-2,4,6(34),8,10(33),11,13,15(20),16,18-decaen-3-yl]acetic Acid] | < 0.1 | – |
| Cc1c([C@H](OC(C)(C)C)C(=O)O)c2n3cc(nc3c1C)-c1cccc(c1)-c1cc(F)ccc1O[C@@H](C)COCCOC1(C)CCN2CC1 [Example 28, (2S)-2-(tert-Butoxy)-2-((6S,Z)-45-fluoro-14,27,28,6-tetramethyl-5,8,11-trioxa-2(5,2)-imidazo[1,2-a]pyridina-1(1,4)-piperidina-3(1,3),4(1,2)-dibenzenacycloundecaphane-26-yl)acetic Acid] | < 0.1 | – |
| Cc1c([C@H](OC(C)(C)C)C(=O)O)c2n3c(Cl)c(nc3c1C)-c1cccc(c1)-c1cc(F)ccc1O[C@@H](C)COCCOC1(C)CCN2CC1 [Example 29, (2S)-2-(tert-butoxy)-2-((6S,E)-23-chloro-45-fluoro-14,27,28,6-tetramethyl-5,8,11-trioxa-2(5,2)-imidazo[1,2-a]pyridina-1(1,4)-piperidina-3(1,3),4(1,2)-dibenzenacycloundecaphane-26-yl)acetic Acid] | < 0.1 | EC50 (NL-RLuc virus; read-out: EC50 μM): 0.001 µM |
